Results on 16 compounds are retold here after patent US20250041429A1, “COMPOUND HAVING BTK PROTEIN DEGRADATION ACTIVITY, AND MEDICAL USES THEREOF” (UBIX THERAPEUTICS, INC., priority 2021, published 2025).

For this experiment, the target named is T1, BTK protein (Homo sapiens, UniProt Q06187).
T1 construct: endogenous in cells; host or cells: TMD-8 cells
Put plainly: Measurement of BTK protein degradation ability in TMD-8 cells (Western blotting). Format: cell-based. The note with it: harvested after 24 hours; for BTK degradation (%) 1 nM: compound 1 nM; for BTK degradation (%) 10 nM: compound 10 nM; for BTK degradation (%) 100 nM: compound 100 nM. The gist of the method: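 BTK levels were measured by immunoblotting of equal-protein RIPA lysates, normalized to GAPDH or β-actin, with chemiluminescent or infrared detection. Lysates came from TMD-8 cells exposed to compound for 24 h at final concentrations of 0.1, 1, 10 μM or 0.0001–0.1 μM, against a DMSO control.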

T1 sequence (Q06187 whole entry): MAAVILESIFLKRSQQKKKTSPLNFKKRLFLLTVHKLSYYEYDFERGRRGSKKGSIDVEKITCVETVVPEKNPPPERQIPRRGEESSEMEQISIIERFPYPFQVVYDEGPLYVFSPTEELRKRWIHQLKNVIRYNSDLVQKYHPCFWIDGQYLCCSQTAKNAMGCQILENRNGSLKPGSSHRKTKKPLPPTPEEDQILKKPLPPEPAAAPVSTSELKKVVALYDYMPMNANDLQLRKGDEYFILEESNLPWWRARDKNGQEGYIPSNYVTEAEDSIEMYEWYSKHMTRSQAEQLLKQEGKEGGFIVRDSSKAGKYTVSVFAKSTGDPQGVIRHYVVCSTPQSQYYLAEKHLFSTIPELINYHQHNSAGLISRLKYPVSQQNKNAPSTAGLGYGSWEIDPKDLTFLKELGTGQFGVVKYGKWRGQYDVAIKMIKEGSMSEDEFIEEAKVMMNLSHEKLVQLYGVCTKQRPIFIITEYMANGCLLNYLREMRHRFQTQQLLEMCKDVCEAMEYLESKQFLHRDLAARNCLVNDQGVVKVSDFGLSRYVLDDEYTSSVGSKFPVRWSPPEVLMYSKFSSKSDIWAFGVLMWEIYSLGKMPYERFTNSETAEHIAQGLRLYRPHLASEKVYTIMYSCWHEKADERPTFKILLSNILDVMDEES

Turning to `Cc1c(NC(=O)N2CC(OC(C)C)C2)cc(F)cc1-c1ccnc(Nc2ccc(N3CCN(CC4CN(c5ccc6c(n5)CN(C5CCC(=O)NC5=O)C6=O)C4)CC3)cc2)n1` (stereo not drawn) [Example 108, N-(3-(2-((4-(4-((1-(6-(2,6-dioxopiperidin-3-yl)-5-oxo-6,7-dihydro-5H-pyrrolo[3,4-b]pyridin-2-yl)azetidin-3-yl)methyl)piperazin-1-yl)phenyl)amino)pyrimidin-4-yl)-5-fluoro-2-methylphenyl)-3-isopropoxyazetidine-1-carboxamide], the “BTK degradation (%) 1 nM” value is recorded as 21.5%, the “BTK degradation (%) 10 nM” value stood at 73% and the “BTK degradation (%) 100 nM” value is reported as 94.5%.
On the same counts, the results for `Cc1cc(-c2ccnc(Nc3ccc(N4CCN(C5CCN(c6ccc7c(c6)C(=O)N(C6CCC(=O)NC6=O)C7=O)CC5)CC4)cc3)n2)ccc1CNC(=O)N1CC(OC(C)C)C1` (stereo not drawn) [Example 109, N-(4-(2-((4-(4-(1-(2-(2,6-dioxopiperidin-3-yl)-1,3-dioxoisoindolin-5-yl)piperidin-4-yl)piperazin-1-yl)phenyl)amino)pyrimidin-4-yl)-2-methylbenzyl)-3-isopropoxyazetidine-1-carboxamide] are 41.5%, 94.0% and 99.5%.
As for `Cc1cc(-c2ccnc(Nc3ccc(C4CCN(C5CCN(c6ccc7c(c6)C(=O)N(C6CCC(=O)NC6=O)C7=O)CC5)CC4)cc3)n2)ccc1CNC(=O)N1CC(OC(C)C)C1` (stereo not drawn) [Example 110, N-(4-(2-((4-(1′-(2-(2,6-dioxopiperidin-3-yl)-1,3-dioxoisoindolin-5-yl)-[1,4′-bipiperidin]-4-yl)phenyl)amino)pyrimidin-4-yl)-2-methylbenzyl)-3-isopropoxyazetidine-1-carboxamide], the “BTK degradation (%) 1 nM” value came out at 28.0%, the “BTK degradation (%) 10 nM” value is listed as 92.0% and the “BTK degradation (%) 100 nM” value is 99.5%.
On the same counts, the results for `Cc1cc(-c2ccnc(Nc3ccc(N4CCC(CN5CCN(c6ccc7c(c6)C(=O)N(C6CCC(=O)NC6=O)C7=O)CC5)CC4)cc3)n2)ccc1CNC(=O)N1CC(OC(C)C)C1` (stereo not drawn) [Example 111, N-(4-(2-((4-(4-((4-(2-(2,6-dioxopiperidin-3-yl)-1,3-dioxoisoindolin-5-yl)piperazin-1-yl)methyl)piperidin-1-yl)phenyl)amino)pyrimidin-4-yl)-2-methylbenzyl)-3-isopropoxyazetidine-1-carboxamide] are 44%, 93.5% and 99.5%.
Taken in the same sequence, the figures for `Cc1cc(-c2ccnc(Nc3ccc(N4CC(CN5CCN(c6ccc7c(c6)C(=O)N(C6CCC(=O)NC6=O)C7=O)CC5)C4)cc3)n2)ccc1CNC(=O)N1CC(OC(C)C)C1` (stereo not drawn) [Example 112, N-(4-(2-((4-(3-((4-(2-(2,6-dioxopiperidin-3-yl)-1,3-dioxoisoindolin-5-yl)piperazin-1-yl)methyl)azetidin-1-yl)phenyl)amino)pyrimidin-4-yl)-2-methylbenzyl)-3-isopropoxyazetidine-1-carboxamide] were 44.0%, 97.0% and 100.0%.
Taken in the same sequence, the figures for `Cc1cc(-c2ccnc(Nc3ccc(N4CC(CN5CCN(C(=O)c6cccc(NC7CCC(=O)NC7=O)c6)CC5)C4)cc3)n2)ccc1CNC(=O)N1CC(OC(C)C)C1` (stereo not drawn) [Example 113, N-(4-(2-((4-(3-((4-(3-((2,6-dioxopiperidin-3-yl)amino)benzoyl)piperazin-1-yl)methyl)azetidin-1-yl)phenyl)amino)pyrimidin-4-yl)-2-methylbenzyl)-3-isopropoxyazetidine-1-carboxamide] were 39.5%, 97.0% and 100.0%.
Regarding `Cc1cc(-c2ccnc(Nc3ccc(N4CCC(CN5CCN(C(=O)c6cccc(NC7CCC(=O)NC7=O)c6)CC5)CC4)cc3)n2)ccc1CNC(=O)N1CC(OC(C)C)C1` (stereo not drawn) [Example 114, N-(4-(2-((4-(4-((4-(3-((2,6-dioxopiperidin-3-yl)amino)benzoyl)piperazin-1-yl)methyl)piperidin-1-yl)phenyl)amino)pyrimidin-4-yl)-2-methylbenzyl)-3-isopropoxyazetidine-1-carboxamide], the “BTK degradation (%) 1 nM” value is recorded as 59.0%, the “BTK degradation (%) 10 nM” value is reported as 99.5% and the “BTK degradation (%) 100 nM” value is 99.5%.
Turning to `Cc1cc(-c2ccnc(Nc3ccc(N4CCN(CC5CCN(Cc6cccc(NC7CCC(=O)NC7=O)c6)CC5)CC4)cc3)n2)ccc1CNC(=O)N1CC(OC(C)C)C1` (stereo not drawn) [Example 115, N-(4-(2-((4-(4-((1-(3-((2,6-dioxopiperidin-3-yl)amino)benzyl)piperidin-4-yl)methyl)piperazin-1-yl)phenyl)amino)pyrimidin-4-yl)-2-methylbenzyl)-3-isopropoxyazetidine-1-carboxamide], the “BTK degradation (%) 1 nM” value came out at 48.0%, the “BTK degradation (%) 10 nM” value is recorded as 97.0% and the “BTK degradation (%) 100 nM” value came out at 100.0%.
For `Cc1cc(-c2ccnc(Nc3ccc(N4CCC(C(=O)N5CCC(c6cccc(NC7CCC(=O)NC7=O)c6)CC5)CC4)cc3)n2)ccc1CNC(=O)N1CC(OC(C)C)C1` (stereo not drawn) [Example 116, N-(4-(2-((4-(4-(4-(3-((2,6-dioxopiperidin-3-yl)amino)phenyl)piperidine-1-carbonyl)piperidin-1-yl)phenyl)amino)pyrimidin-4-yl)-2-methylbenzyl)-3-isopropoxyazetidine-1-carboxamide], the “BTK degradation (%) 1 nM” value amounted to 1.0%, the “BTK degradation (%) 10 nM” value was 56.0% and the “BTK degradation (%) 100 nM” value came out at 96.5%.
On the same counts, the results for `Cc1cc(-c2ccnc(Nc3ccc(N4CCC(C(=O)N5CCC(c6ccc(NC7CCC(=O)NC7=O)cc6)CC5)CC4)cc3)n2)ccc1CNC(=O)N1CC(OC(C)C)C1` (stereo not drawn) [Example 117, N-(4-(2-((4-(4-(4-(4-((2,6-dioxopiperidin-3-yl)amino)phenyl)piperidine-1-carbonyl)piperidin-1-yl)phenyl)amino)pyrimidin-4-yl)-2-methylbenzyl)-3-isopropoxyazetidine-1-carboxamide] are 24.0%, 87.5% and 99.0%.
On the same counts, the results for `Cc1cc(-c2ccnc(Nc3ccc(N4CCC(C(=O)N5CCC(c6ccc(OC7CCC(=O)NC7=O)cc6)CC5)CC4)cc3)n2)ccc1CNC(=O)N1CC(OC(C)C)C1` (stereo not drawn) [Example 118, N-(4-(2-((4-(4-(4-(4-((2,6-dioxopiperidin-3-yl)oxy)phenyl)piperidine-1-carbonyl)piperidin-1-yl)phenyl)amino)pyrimidin-4-yl)-2-methylbenzyl)-3-isopropoxyazetidine-1-carboxamide] are 15.0%, 68.0% and 97.5%.
On the same counts, the results for `Cc1cc(-c2ccnc(Nc3ccc(N4CCC(CN5CCC(c6ccc(OC7CCC(=O)NC7=O)cc6)CC5)CC4)cc3)n2)ccc1CNC(=O)N1CC(OC(C)C)C1` (stereo not drawn) [Example 119, N-(4-(2-((4-(4-((4-(4-((2,6-dioxopiperidin-3-yl)oxy)phenyl)piperidin-1-yl)methyl)piperidin-1-yl)phenyl)amino)pyrimidin-4-yl)-2-methylbenzyl)-3-isopropoxyazetidine-1-carboxamide] are 41.5%, 91.0% and 99.5%.
Consider `Cc1cc(-c2ccnc(Nc3ccc(N4CCC(CN5CCN(c6cccc(NC7CCC(=O)NC7=O)c6)CC5)CC4)cc3)n2)ccc1CNC(=O)N1CC(OC(C)C)C1` (stereo not drawn) [Example 120, N-(4-(2-((4-(4-((4-(3-((2,6-dioxopiperidin-3-yl)amino)phenyl)piperazin-1-yl)methyl)piperidin-1-yl)phenyl)amino)pyrimidin-4-yl)-2-methylbenzyl)-3-isopropoxyazetidine-1-carboxamide], for which the “BTK degradation (%) 1 nM” value is on record as 18.5%, the “BTK degradation (%) 10 nM” value stood at 91.5% and the “BTK degradation (%) 100 nM” value is listed as 99.5%.
On the same counts, the results for `Cc1cc(-c2ccnc(Nc3ccc(N4CCC(CN5CCN(c6ccc(NC7CCC(=O)NC7=O)cc6)CC5)CC4)cc3)n2)ccc1CNC(=O)N1CC(OC(C)C)C1` (stereo not drawn) [Example 121, N-(4-(2-((4-(4-((4-(4-((2,6-dioxopiperidin-3-yl)amino)phenyl)piperazin-1-yl)methyl)piperidin-1-yl)phenyl)amino)pyrimidin-4-yl)-2-methylbenzyl)-3-isopropoxyazetidine-1-carboxamide] are 43.0%, 97.0% and 100.0%.
On the same counts, the results for `Cc1cc(-c2ccnc(Nc3ccc(N4CCC(CN5CCC(c6cccc(NC7CCC(=O)NC7=O)c6)CC5)CC4)cc3)n2)ccc1CNC(=O)N1CC(OC(C)C)C1` (stereo not drawn) [Example 122, N-(4-(2-((4-(4-((4-(3-((2,6-dioxopiperidin-3-yl)amino)phenyl)piperidin-1-yl)methyl)piperidin-1-yl)phenyl)amino)pyrimidin-4-yl)-2-methylbenzyl)-3-isopropoxyazetidine-1-carboxamide] are −9.0%, 63.0% and 98.5%.
On the same counts, the results for `Cc1cc(-c2ccnc(Nc3ccc(N4CCC(CN5CCC(c6ccc(NC7CCC(=O)NC7=O)cc6)CC5)CC4)cc3)n2)ccc1CNC(=O)N1CC(OC(C)C)C1` (stereo not drawn) [Example 123, N-(4-(2-((4-(4-((4-(4-((2,6-dioxopiperidin-3-yl)amino)phenyl)piperidin-1-yl)methyl)piperidin-1-yl)phenyl)amino)pyrimidin-4-yl)-2-methylbenzyl)-3-isopropoxyazetidine-1-carboxamide] are 17.5%, 92.5% and 100.0%.
